Where a name gives a salt, the structure may show the parent alone. Read-outs that look alike come from different tables or passages of the source.
Tests used:
[1] = tested on: relapsed or refractory AML; test: Treatment response in participants with AML (2017 European Leukemia Net recommendations); format: in vivo, human
Procedure: (§1) Treatment efficacy was assessed according to the 2017 European Leukemia Net recommendations for AML[23] and the 2006 International Working Group response criteria for MDS.[24] In participants with AML, efficacy outcomes included complete remission (CR), CR with incomplete blood count recovery (CRi), composite complete remission (CRc; CR + CRi), morphologic leukemia‐free state (MLFS), partial remission (PR), overall response rate (CRc + MLFS+PR), stable disease (SD), and treatment failure. Bone marrow biopsies/aspirates were obtained from all participants with AML on Day 1 of Cycles 2 and 3 and once every cycle until response and on Day 1 of Cycles 6, 9, and 12 in responding participants.

[2] = tested on: high‐risk MDS; test: Treatment response in participants with high‐risk MDS (2006 International Working Group criteria); format: in vivo, human; settings: Full Analysis Set
Procedure: as §1

[3] = Milademetan plasma pharmacokinetics; format: in vivo, human; design: AUC0‐24h versus dose, power model estimated slope: unit not given beside the values; settings: for half-life / Tmax: human, plasma; for half-life: read-out: geometric mean t1/2
Description: For PK analysis, blood samples were collected at frequent intervals during Cycle 1 Days 1 and 15 in Part 1 (monotherapy), and on Day 5 or 8 (according to dosing schedule) and Day 14 in Part 1A, with sparse sampling on other days.

[4] = tested on: patients with solid tumors or lymphomas; settings: cited from earlier work
[5] = 160 mg QD for 15 days in Cycle 1
[6] = monotherapy, all studied doses, Cycle 1 Day 1

CC1(C)CCC2(CC1)N[C@@H](C(=O)N[C@@H]1CC[C@@H](C(N)=O)OC1)[C@H](c1ccnc(Cl)c1F)[C@]21C(=O)Nc2cc(Cl)ccc21 [Milademetan monotherapy, milademetan tosylate hydrate]
AML: CR ([1]; Full Analysis Set): 2 (4%) n (%) | AML: CRi ([1]; Full Analysis Set): 1 (2%) n (%) | Participants who achieved CR with incomplete blood count recovery (CRi) ([1]; as given in the abstract): 2.1% | Participants who achieved complete remission (CR) ([1]; as given in the abstract): 4.2% | Participants with remission ([1]; as summed in the discussion): 4 n (%) | MDS: Marrow CR [2]: 1 (11%) n (%) | MDS: SD [2]: 2 (22%) n (%) | accumulation ratio (AR) based on AUC0‐24h [3, 5]: 1.29 | accumulation ratio (AR) based on C max [3, 5]: 1.21 | Increase of C max, AUC0‐24h and AUClast with dose ([3]; both monotherapy and combination arms): dose‐proportional | half-life ([3]; monotherapy, Cycle 1 Day 15): 7.2 to 25.2 h | Tmax ([3]; Cohorts 1 through 3 (60, 90, 120 mg QD 21/28)): ~3 h | Tmax [3, 6]: 3 to 4.6 h | half-life [3, 6]: 12.9 to 24.6 h | C max versus dose, power model estimated slope ([3]; monotherapy, Cycle 1 Day 1, 90% CI 0.44–1.08): 0.76 | AUC0‐24h versus dose, power model estimated slope ([3]; monotherapy, Cycle 1 Day 1, 90% CI 0.49–1.15): 0.82 | Time at which steady state is reached ([3]; repeated daily doses): ≤ 8 days | DLT observed ([4]; 120 mg QD 21/28, phase 1 studies in the United States and Japan): thrombocytopenia and nausea | MTD ([4]; US study in solid tumors, QD 3/14 × 2 schedule): 260 mg
